Test results as given in US11964973B2 (priority 2019, dated 2024).
Read-outs that look alike come from different tables or passages of the source.

Experiments:
naïve human CD8 T cells = assay: CellTiter-Glo CD8 T cell proliferation assay; assay type: cell-based; settings: read-out: CD8 GLO Normalized EC50
Description: Assay 4: CellTiter-Glo CD8 T Cell Proliferation Assay
Frozen naïve human CD8 T cells were thawed in RPMI+10% FBS, incubated for 2 h in 37° C., and counted. The 384-well tissue culture plate was coated overnight at 4° C. with 20 μl anti-human CD3 at 0.1 μg/mL in plain RPMI, which was removed off the plate before 20 k/40 μL CD8 T cells with 0.5 μg/ml soluble anti-human CD28 were added to each well. The compounds were echoed to the cell plate immediately after the cells were plated. After 72 h incubation at 37° C. incubator, 10 μL CellTiter-glo reagent (Promega catalog number G7570) was added to each well. The plate was vigorously shaken for 5 mins, incubated at room temperature for another 15 mins and read on Envision for CD8 T cell proliferation. In analysis, 0.1 μg/mL anti-CD3 and 0.5 μg/mL anti-CD28 stimulated CD8 T cell signal was background.

[1] = test system: OT-1 CD8+ T cells with SIINFEKL-loaded MC38 tumor cells; assay: Murine cytotoxic T lymphocyte assay (IFN-γ); assay type: cell-based, mouse; settings: murine cytotoxic T lymphocyte, IFN-γ, read-out: msCTL INFg IC50
Description: Assay 6: Murine Cytotoxic T Lymphocyte Assay
An antigen-specific cytolytic T-cell (CTL) assay was developed to evaluate functionally the ability of DGKα and DGKζ inhibitors to enhance effector T cell mediated tumor cell killing activity. CD8+ T-cells isolated from the OT-1 transgenic mouse recognize antigen presenting cells, MC38, that present the ovalbumin derived peptide […]. Recognition of the cognate antigen initiates the cytolytic activity of the OT-1 antigen-specific CD8+ T cells.
Functional CTL cells were generated as follows: OT-1 splenocytes from 8-12 week old mice were isolated and expanded in the presence of the […] peptide at 1 μg/mL and mIL2 at 10 U/mL. After three days, fresh media with […] was added. On day 5 of the expansion, the CD8+ T cells were isolated and ready for use. Activated CTL cells may be stored frozen for 6 months. Separately, one million MC38 tumor cells were pulsed with 1 μg/mL of […]-OVA peptide for 3 hours at 37° C. The cells were washed (3×) with fresh media to remove excess peptide. Finally, CTL cells that were pretreated with DGK inhibitors for 1 hour in a 96-well U bottom plate were combined with the antigen loaded MC38 tumor cells at a 1:10 ratio. The cells were then spun at 700 rpm for 5 min and placed in an incubator overnight at 37° C. After 24 hours, the supernatant was collected for analysis of IFN-γ cytokine levels by AlphaLisa purchased from Perkin Elmer.

DGKα = DGKα (Homo sapiens (Human), UniProt P23743); assay: biochemical; assay type: biochemical; settings: liposome (LIPGLO) assay; read-out: DGKα LIPGLO IC50
human DGKζ = human DGKζ (Homo sapiens (Human), UniProt Q13574); assay: biochemical; assay type: biochemical; settings: read-out: DGKζ LIPGLO IC50
[2] = test system: Human venous whole blood (IFN-γ); assay: Human whole blood IFN-γ assay; assay type: cell-based; settings: Homo sapiens, 24 h, human whole blood, anti-CD3 plus anti-CD28, 24 hours; read-out: INFg Whole Blood Normalized Agonist EC50
Description: Assay 10: Human Whole Blood IFN-γ Assay
Human venous whole blood (22.5 μL per well), obtained from healthy donors, was pre-treated with compounds for one hour at 37° C. in a humidified 95% air/5% CO2 incubator. The blood was stimulated with 2.5 μL anti-human CD3 and anti-CD28 mAb at a final concentration of 1 μg/mL each for 24 hours at 37° C. IFN-γ in the supernatants was measured using AlphLISA kit (Cat #AL217).

Sequence of human DGKζ (Q13574 whole entry, looked up): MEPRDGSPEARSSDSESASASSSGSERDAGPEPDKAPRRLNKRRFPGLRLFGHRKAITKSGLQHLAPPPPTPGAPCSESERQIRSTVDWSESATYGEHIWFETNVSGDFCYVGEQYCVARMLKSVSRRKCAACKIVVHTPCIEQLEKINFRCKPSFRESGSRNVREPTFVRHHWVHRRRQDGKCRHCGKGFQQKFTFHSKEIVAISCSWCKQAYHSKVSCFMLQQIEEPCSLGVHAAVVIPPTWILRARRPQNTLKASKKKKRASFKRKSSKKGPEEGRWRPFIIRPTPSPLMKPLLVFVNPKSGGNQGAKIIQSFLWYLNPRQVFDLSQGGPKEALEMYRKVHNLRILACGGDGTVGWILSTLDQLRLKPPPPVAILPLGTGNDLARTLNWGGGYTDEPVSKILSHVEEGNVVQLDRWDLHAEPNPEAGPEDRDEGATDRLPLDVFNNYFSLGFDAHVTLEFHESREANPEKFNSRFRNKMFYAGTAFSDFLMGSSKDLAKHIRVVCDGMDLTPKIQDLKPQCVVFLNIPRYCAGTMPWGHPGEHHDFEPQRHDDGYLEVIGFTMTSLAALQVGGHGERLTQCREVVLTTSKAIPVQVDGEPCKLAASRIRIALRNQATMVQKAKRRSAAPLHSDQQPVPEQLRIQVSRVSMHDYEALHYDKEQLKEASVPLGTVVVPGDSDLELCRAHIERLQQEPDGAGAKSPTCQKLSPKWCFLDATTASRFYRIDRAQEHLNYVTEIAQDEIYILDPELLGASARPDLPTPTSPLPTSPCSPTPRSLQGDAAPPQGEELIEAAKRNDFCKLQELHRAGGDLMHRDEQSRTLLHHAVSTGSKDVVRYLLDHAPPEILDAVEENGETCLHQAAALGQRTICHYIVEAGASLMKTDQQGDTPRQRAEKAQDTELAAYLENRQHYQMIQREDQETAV
Sequence of DGKα (P23743 whole entry, looked up): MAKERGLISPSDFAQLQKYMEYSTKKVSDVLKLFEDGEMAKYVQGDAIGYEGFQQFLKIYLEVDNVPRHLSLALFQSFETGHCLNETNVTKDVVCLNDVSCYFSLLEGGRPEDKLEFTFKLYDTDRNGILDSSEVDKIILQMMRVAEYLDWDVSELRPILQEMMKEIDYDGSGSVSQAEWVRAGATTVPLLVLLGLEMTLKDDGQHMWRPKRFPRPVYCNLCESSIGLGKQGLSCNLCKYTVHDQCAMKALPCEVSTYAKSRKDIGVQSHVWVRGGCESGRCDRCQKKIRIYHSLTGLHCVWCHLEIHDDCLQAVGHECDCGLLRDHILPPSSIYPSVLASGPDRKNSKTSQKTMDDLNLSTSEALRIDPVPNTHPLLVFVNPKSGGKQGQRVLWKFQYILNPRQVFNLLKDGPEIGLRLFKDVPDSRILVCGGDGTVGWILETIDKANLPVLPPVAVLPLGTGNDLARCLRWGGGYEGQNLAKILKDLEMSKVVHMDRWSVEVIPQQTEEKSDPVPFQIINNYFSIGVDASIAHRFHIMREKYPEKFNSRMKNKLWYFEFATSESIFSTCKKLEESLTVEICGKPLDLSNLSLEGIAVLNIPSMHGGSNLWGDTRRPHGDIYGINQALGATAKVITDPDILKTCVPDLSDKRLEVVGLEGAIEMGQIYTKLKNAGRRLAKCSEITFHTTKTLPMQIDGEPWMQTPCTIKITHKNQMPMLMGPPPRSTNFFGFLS

In the case of `Cc1cc(Br)ccc1OC1CCN(c2c(C#N)c(=O)n(C)c3ccc(Cl)nc23)CC1` [Example 26, 4-(4-(4-bromo-2-methylphenoxy)piperidin-1-yl)-6-chloro-1-methyl-2-oxo-1,2-dihydro-1,5-naphthyridine-3-carbonitrile], the EC50 (naïve human CD8 T cells; Homo sapiens) is reported as 2.7 µM and the IC50 ([1]; Mus musculus, MC-38) is reported as 10 µM.
Work on `Cc1cc(OC(F)(F)F)ccc1OC1CCN(c2c(C#N)c(=O)n(C)c3ccc(Cl)nc23)CC1` [Example 29, -chloro-1-methyl-4-(4-(2-methyl-4-(trifluoromethoxy)phenoxy)piperidin-1-yl)-2-oxo-1,2-dihydro-1,5-naphthyridine-3-carbonitrile] yielded an IC50 (DGKα) of 3.8 µM, an IC50 (human DGKζ) of 240 µM and an EC50 (naïve human CD8 T cells) of 5.9 µM. It also gave an IC50 [1] of 10 µM.
For `Cn1c(=O)c(C#N)c(N2CCC(Oc3ccc(C(F)(F)F)cc3)CC2)c2nc(Cl)ccc21` [Example 30, 6-chloro-1-methyl-2-oxo-4-(4-(4-(trifluoromethyl)phenoxy)piperidin-1-yl)-1,2-dihydro-1,5-naphthyridine-3-carbonitrile], the IC50 (DGKα) was 0.98 µM, the IC50 (human DGKζ; liposome (LIPGLO) assay) was 240 µM and the EC50 (naïve human CD8 T cells; Homo sapiens) was 10 µM. It also gave an IC50 ([1]; Mus musculus, MC-38) of 3.5 µM.
Compound `Cn1c(=O)c(C#N)c(N2CCC(Oc3cc(F)ccc3Cl)CC2)c2nc(Cl)ccc21` [Example 23, 6-chloro-4-(4-(2-chloro-5-fluorophenoxy)piperidin-1-yl)-1-methyl-2-oxo-1,2-dihydro-1,5-naphthyridine-3-carbonitrile] has an IC50 (DGKα) of 66 µM, an IC50 (human DGKζ; liposome (LIPGLO) assay) of 58 µM and an IC50 ([1]; Mus musculus, MC-38) of 10 µM.
`Cn1c(=O)c(C#N)c(N2CCC(Oc3ccc(Cl)cc3)CC2)c2nc(Cl)ccc21` [Example 16, 6-chloro-4-(4-(4-chlorophenoxy)piperidin-1-yl)-1-methyl-2-oxo-1,2-dihydro-1,5-naphthyridine-3-carbonitrile] gave an IC50 (DGKα) of 1.7 µM, an EC50 (naïve human CD8 T cells; Homo sapiens) of 0.093 µM and an IC50 ([1]; Mus musculus, MC-38) of 1.1 µM. It also gave an EC50 [2] of 10 µM.
`Cc1cc(F)cc(OC2CCN(c3c(C#N)c(=O)n(C)c4ccc(Cl)nc34)CC2)c1` [Example 28] gave an IC50 (DGKα) of 1.6 µM, an IC50 (human DGKζ; liposome (LIPGLO) assay) of 5.4 µM and an IC50 [1] of 10 µM.
With `CN(C)C(=O)c1ccc(OC2CCN(c3c(C#N)c(=O)n(C)c4ccc(Cl)nc34)CC2)cc1` [Example 25, 4-((1-(6-chloro-3-cyano-1-methyl-2-oxo-1,2-dihydro-1,5-naphthyridin-4-yl)piperidin-4-yl)oxy)-N,N-dimethylbenzamide] the IC50 (DGKα) was 0.73 µM, the IC50 (human DGKζ; liposome (LIPGLO) assay) was 240 µM and the EC50 (naïve human CD8 T cells; Homo sapiens) was 1.2 µM. For the same compound, the IC50 ([1]; Mus musculus, MC-38) was 10 µM.
Work on `Cn1c(=O)c(C#N)c(N2CCC(Oc3cccc(C(F)(F)F)c3)CC2)c2nc(Cl)ccc21` [Example 24, 6-chloro-1-methyl-2-oxo-4-(4-(3-(trifluoromethyl)phenoxy)piperidin-1-yl)-1,2-dihydro-1,5-naphthyridine-3-carbonitrile] yielded an IC50 (DGKα) of 2 µM, an IC50 (human DGKζ; liposome (LIPGLO) assay) of 27 µM and an EC50 (naïve human CD8 T cells; Homo sapiens) of 0.75 µM. The IC50 ([1]; Mus musculus, MC-38) was 1.5 µM.
Work on `Cn1c(=O)c(C#N)c(N2CCC(Oc3ccc(C#N)c(Cl)c3)CC2)c2nc(Cl)ccc21` [Example 38, 6-chloro-4-(4-(3-chloro-4-cyanophenoxy)piperidin-1-yl)-1-methyl-2-oxo-1,2-dihydro-1,5-naphthyridine-3-carbonitrile] yielded an IC50 (DGKα) of 1.8 µM, an IC50 (human DGKζ; liposome (LIPGLO) assay) of 9 µM and an EC50 (naïve human CD8 T cells; Homo sapiens) of 1.6 µM. The IC50 ([1]; Mus musculus, MC-38) was 10 µM.
In the case of `Cn1c(=O)c(C#N)c(N2CCC(Oc3ccc(OC(F)(F)F)cc3Cl)CC2)c2nc(Cl)ccc21` [Example 41, 6-chloro-4-(4-(2-chloro-4-(trifluoromethoxy)phenoxy)piperidin-1-yl)-1-methyl-2-oxo-1,2-dihydro-1,5-naphthyridine-3-carbonitrile], the IC50 (DGKα) is reported as 1.1 µM, the IC50 (human DGKζ; liposome (LIPGLO) assay) is reported as 23 µM and the EC50 (naïve human CD8 T cells; Homo sapiens) is reported as 0.21 µM. For the same compound, the IC50 ([1]; Mus musculus, MC-38) was 10 µM.
For `Cn1c(=O)c(C#N)c(N2CCC(Oc3ccc(OC(F)(F)F)c(Cl)c3)CC2)c2nc(Cl)ccc21` [Example 42, 6-chloro-4-(4-(3-chloro-4-(trifluoromethoxy)phenoxy)piperidin-1-yl)-1-methyl-2-oxo-1,2-dihydro-1,5-naphthyridine-3-carbonitrile], the IC50 (DGKα) was 5.4 µM, the IC50 (human DGKζ; liposome (LIPGLO) assay) was 240 µM and the EC50 (naïve human CD8 T cells; Homo sapiens) was 0.7 µM. For the same compound, the IC50 ([1]; Mus musculus, MC-38) was 10 µM.
Work on `Cn1c(=O)c(C#N)c(N2CCC(Oc3ccc(OC(F)(F)F)cc3)CC2)c2nc(Br)ccc21` [Example 47, 6-Bromo-1-methyl-2-oxo-4-(4-(4-(trifluoromethoxy)phenoxy)piperidin-1-yl)-1,2-dihydro-1,5-naphthyridine-3-carbonitrile] yielded an IC50 (DGKα) of 0.45 µM, an IC50 (human DGKζ; liposome (LIPGLO) assay) of 240 µM and an EC50 (naïve human CD8 T cells; Homo sapiens) of 0.49 µM. For the same compound, the IC50 ([1]; Mus musculus, MC-38) was 0.68 µM.
With `Cn1c(=O)c(C#N)c(N2CCC(Oc3cccc(C#N)c3)CC2)c2nc(Cl)ccc21` [Example 34, 6-chloro-4-(4-(3-cyanophenoxy)piperidin-1-yl)-1-methyl-2-oxo-1,2-dihydro-1,5-naphthyridine-3-carbonitrile] the IC50 (DGKα) was 1.1 µM, the IC50 (human DGKζ; liposome (LIPGLO) assay) was 9 µM and the EC50 (naïve human CD8 T cells; Homo sapiens) was 4.1 µM. The IC50 ([1]; Mus musculus, MC-38) was 8.5 µM.
With `Cn1c(=O)c(C#N)c(N2CCC(Oc3ccccc3OC(F)(F)F)CC2)c2nc(Cl)ccc21` [Example 33, 6-chloro-1-methyl-2-oxo-4-(4-(2-(trifluoromethoxy)phenoxy)piperidin-1-yl)-1,2-dihydro-1,5-naphthyridine-3-carbonitrile] the IC50 (DGKα) was 2.8 µM, the IC50 (human DGKζ; liposome (LIPGLO) assay) was 240 µM and the EC50 (naïve human CD8 T cells; Homo sapiens) was 10 µM. For the same compound, the IC50 ([1]; Mus musculus, MC-38) was 3.8 µM.
Compound `Cn1c(=O)c(C#N)c(N2CCC(Oc3ccc(C#N)cc3)CC2)c2nc(Cl)ccc21` [Example 32, 6-chloro-4-(4-(4-cyanophenoxy)piperidin-1-yl)-1-methyl-2-oxo-1,2-dihydro-1,5-naphthyridine-3-carbonitrile] has an IC50 ([1]; Mus musculus, MC-38) of 10 µM.
For `Cn1c(=O)c(C#N)c(N2CCC(Oc3ccccc3C#N)CC2)c2nc(Cl)ccc21` [Example 43, 6-chloro-4-(4-(2-cyanophenoxy)piperidin-1-yl)-1-methyl-2-oxo-1,2-dihydro-1,5-naphthyridine-3-carbonitrile], the IC50 (DGKα) was 1.5 µM, the IC50 (human DGKζ; liposome (LIPGLO) assay) was 27 µM and the EC50 (naïve human CD8 T cells; Homo sapiens) was 10 µM. The IC50 ([1]; Mus musculus, MC-38) was 10 µM.
Compound `COc1cc(OC2CCN(c3c(C#N)c(=O)n(C)c4ccc(Cl)nc34)CC2)ccc1Cl` [Example 39, 6-chloro-4-(4-(4-chloro-3-methoxyphenoxy)piperidin-1-yl)-1-methyl-2-oxo-1,2-dihydro-1,5-naphthyridine-3-carbonitrile] has an IC50 (DGKα) of 0.35 µM, an IC50 (human DGKζ; liposome (LIPGLO) assay) of 14 µM and an EC50 (naïve human CD8 T cells; Homo sapiens) of 0.13 µM. For the same compound, the IC50 ([1]; Mus musculus, MC-38) was 3.7 µM.
`Cc1ccc(OC2CCN(c3c(C#N)c(=O)n(C)c4ccc(Cl)nc34)CC2)cc1Cl` [Example 40, 6-chloro-4-(4-(3-chloro-4-methylphenoxy)piperidin-1-yl)-1-methyl-2-oxo-1,2-dihydro-1,5-naphthyridine-3-carbonitrile] was tested, and the IC50 (DGKα) was 0.74 µM, the IC50 (human DGKζ; liposome (LIPGLO) assay) was 9 µM and the EC50 (naïve human CD8 T cells; Homo sapiens) was 1.2 µM. The IC50 ([1]; Mus musculus, MC-38) was 10 µM.
With `Cn1c(=O)c(C#N)c(N2CCC(Oc3cccc(F)c3)CC2)c2nc(Cl)ccc21` [Example 45, 6-chloro-4-(4-(3-fluorophenoxy)piperidin-1-yl)-1-methyl-2-oxo-1,2-dihydro-1,5-naphthyridine-3-carbonitrile] the EC50 (naïve human CD8 T cells; Homo sapiens) was 0.098 µM and the IC50 ([1]; Mus musculus, MC-38) was 10 µM.
In the case of `Cn1c(=O)c(C#N)c(N2CCC(Oc3ccc(OC(F)(F)F)cc3)CC2)c2nc(Cl)ccc21` [Example 19, 6-chloro-1-methyl-2-oxo-4-(4-(4-(trifluoromethoxy)phenoxy)piperidin-1-yl)-1,2-dihydro-1,5-naphthyridine-3-carbonitrile], the IC50 (DGKα) is reported as 0.32 µM, the EC50 (naïve human CD8 T cells; Homo sapiens) is reported as 0.28 µM and the IC50 ([1]; Mus musculus, MC-38) is reported as 0.21 µM. The EC50 [2] was 10 µM.
For `Cn1c(=O)c(C#N)c(N2CCC(Oc3cccc(Cl)c3)CC2)c2nc(Cl)ccc21` [Example 27, 6-chloro-4-(4-(3-chlorophenoxy)piperidin-1-yl)-1-methyl-2-oxo-1,2-dihydro-1,5-naphthyridine-3-carbonitrile], the EC50 (naïve human CD8 T cells; Homo sapiens) was 0.073 µM and the IC50 ([1]; Mus musculus, MC-38) was 7.4 µM.
